US20160083397A1, “PARTHENOLIDE DERIVATIVES AND THEIR MODULATION OF PROCESSES CONTROLLED BY REGULATED TRANSLATION” (THE BOARD OF TRUSTEES OF THE UNIVERSITY OF ARKANSAS, priority 2013, published 2016)

Tests used:
[1] = test system: SK-MEL-2; test: NCI 60-cell line five dose screen: SK-MEL-2; details: SK-MEL-2, Melanoma
[2] = test system: HCC-2998; test: NCI 60-cell line five dose screen: HCC-2998; details: HCC-2998, Colon Cancer
[3] = test system: UACC-62
[4] = test system: ACHN

## 13-(2-iodoimidazole)parthenolide [PNR-5-65]
[1]
  GI50: 18.6 µM
[1]; read-out: LC50
  CC50: 66.1 µM

## (E)-13-(3-thiopheno)parthenolide [PNR-5-53]
[2]
  GI50: 33.8 µM
[2]; read-out: LC50
  CC50: > 100 µM
[3]
  CC50: 76.6 µM
[3]; UACC-62, Melanoma
  GI50: 13.8 µM
[4]
  CC50: > 100 µM
